Results published in patent US8614327B2 (Vertex Pharmaceuticals Incorporated, priority 2004, dated 2013).

Target: T1, ΔF508-CFTR (Homo sapiens, UniProt P13569, DEL508-508)
T1 construct: expressed in transfected cells
Experiment: Membrane potential optical (FRET/VIPR) assay, identification of potentiator compounds
Assay type: cell-based
Settings: Table 3, assay not given; for % Activity: relative efficacy
Summary of the method: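 Double-addition potentiator screen: compound delivered in gluconate-substituted Cl^--free medium, membrane potential followed via CC2-DMPE/DiSBAC2(3) FRET on VIPR. Cells were ΔF508-CFTR-expressing NIH3T3 mouse fibroblasts, held 2 h at 37° C. then 24 h at 27° C. before assay.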

T1 sequence (P13569 with tags, fused parts or gaps DEL508-508): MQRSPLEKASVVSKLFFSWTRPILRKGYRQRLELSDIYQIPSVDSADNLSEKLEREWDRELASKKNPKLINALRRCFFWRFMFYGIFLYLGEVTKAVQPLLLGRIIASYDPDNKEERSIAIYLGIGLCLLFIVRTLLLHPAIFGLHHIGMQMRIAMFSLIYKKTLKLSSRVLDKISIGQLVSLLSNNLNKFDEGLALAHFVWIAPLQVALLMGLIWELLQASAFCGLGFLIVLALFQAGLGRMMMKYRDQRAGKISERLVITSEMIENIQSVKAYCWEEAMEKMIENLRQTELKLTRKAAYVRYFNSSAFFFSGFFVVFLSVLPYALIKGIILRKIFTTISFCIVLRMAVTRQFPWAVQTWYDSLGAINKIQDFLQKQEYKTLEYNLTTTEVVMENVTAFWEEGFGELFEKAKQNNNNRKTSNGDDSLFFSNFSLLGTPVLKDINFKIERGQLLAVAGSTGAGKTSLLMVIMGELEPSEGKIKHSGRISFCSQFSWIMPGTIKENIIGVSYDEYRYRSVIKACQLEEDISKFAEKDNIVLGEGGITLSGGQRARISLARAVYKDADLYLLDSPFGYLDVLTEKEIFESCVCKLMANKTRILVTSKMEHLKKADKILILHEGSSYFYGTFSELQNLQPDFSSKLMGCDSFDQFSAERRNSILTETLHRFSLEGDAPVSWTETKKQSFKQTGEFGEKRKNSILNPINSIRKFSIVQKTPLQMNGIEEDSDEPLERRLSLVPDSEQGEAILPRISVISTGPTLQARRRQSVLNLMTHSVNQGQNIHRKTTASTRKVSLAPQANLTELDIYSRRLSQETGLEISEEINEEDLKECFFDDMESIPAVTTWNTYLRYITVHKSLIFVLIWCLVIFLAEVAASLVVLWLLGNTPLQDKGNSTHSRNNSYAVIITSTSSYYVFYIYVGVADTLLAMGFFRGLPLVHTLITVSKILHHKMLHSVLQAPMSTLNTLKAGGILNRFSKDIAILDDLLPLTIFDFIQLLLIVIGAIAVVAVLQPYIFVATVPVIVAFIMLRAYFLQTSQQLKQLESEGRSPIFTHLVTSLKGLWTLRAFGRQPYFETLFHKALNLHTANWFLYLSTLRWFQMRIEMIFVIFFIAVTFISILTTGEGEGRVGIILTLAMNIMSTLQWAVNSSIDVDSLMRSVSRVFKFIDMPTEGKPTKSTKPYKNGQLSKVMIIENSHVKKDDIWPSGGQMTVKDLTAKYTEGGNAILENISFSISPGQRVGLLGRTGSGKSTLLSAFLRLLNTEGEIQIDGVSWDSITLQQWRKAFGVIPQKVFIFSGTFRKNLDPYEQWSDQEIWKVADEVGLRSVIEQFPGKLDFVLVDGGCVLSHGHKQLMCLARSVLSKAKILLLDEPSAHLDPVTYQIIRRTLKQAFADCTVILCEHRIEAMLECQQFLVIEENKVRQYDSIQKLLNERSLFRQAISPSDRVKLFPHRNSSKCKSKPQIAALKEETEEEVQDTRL

| Compound | EC50 [µM] | % Activity |
| --- | --- | --- |
| O=C(Nc1cc2[nH]ccc2cc1-c1cccnc1)c1c[nH]c2ccccc2c1=O [Compound 65, 4-oxo-N-[5-(3-pyridyl)-1H-indol-6-yl]-1H-quinoline-3-carboxamide] | < 10 | ++ (between 25% to 100%) |
| O=C(Nc1ccc2[nH]nnc2c1)c1c[nH]c2ccccc2c1=O [Compound 256, N-(1H-benzotriazol-5-yl)-4-oxo-1H-quinoline-3-carboxamide] | 25 to 60 | + (<25%) |
| CCC(C)c1ccc(NC(=O)c2c[nH]c3ccccc3c2=O)cc1 (stereo not shown) [Compound 310, 4-oxo-N-(4-sec-butylphenyl)-1H-quinoline-3-carboxamide] | < 10 | ++ (between 25% to 100%) |
| O=C(Nc1cc(Cl)ccc1Oc1ccccc1)c1c[nH]c2ccccc2c1=O [Compound 292, N-(5-chloro-2-phenoxy-phenyl)-4-oxo-1H-quinoline-3-carboxamide] | < 10 | ++ (between 25% to 100%) |
| O=C(Nc1ccc2c(c1)OCO2)c1c[nH]c2ccccc2c1=O [Compound 437, N-benzo[1,3]dioxol-5-yl-4-oxo-1H-quinoline-3-carboxamide] | 25 to 60 | + (<25%) |
| COc1ccc2[nH]cc(C(=O)Nc3ccc(N4CCC[C@@H]4C)cc3C(F)(F)F)c(=O)c2c1 [Compound 601, (S)-6-methoxy-N-(4-(2-methylpyrrolidin-1-yl)-2-(trifluoromethyl)phenyl)-4-oxo-1,4-dihydroquinoline-3-carboxamide] | < 10 | ++ (between 25% to 100%) |
| CCc1ccc(Cl)c(CC)c1NC(=O)c1c[nH]c2ccccc2c1=O [Compound 91, N-(3-chloro-2,6-diethyl-phenyl)-4-oxo-1H-quinoline-3-carboxamide] | < 10 | ++ (between 25% to 100%) |
| CS(=O)(=O)Nc1cccc(NC(=O)c2c[nH]c3ccccc3c2=O)c1 [Compound 214, N-(3-methylsulfonylaminophenyl)-4-oxo-1H-quinoline-3-carboxamide] |  | ++ (between 25% to 100%) |
| COc1cc(NC(=O)c2c[nH]c3ccccc3c2=O)cc2ccccc12 [Compound 717, N-(4-methoxy-2-naphthyl)-4-oxo-1H-quinoline-3-carboxamide] | < 10 | ++ (between 25% to 100%) |
| CC1(c2ccc(NC(=O)c3c[nH]c4cccc(O)c4c3=O)cc2)COC1 [Compound 529, 5-hydroxy-N-[4-(3-methyloxetan-3-yl)phenyl]-4-oxo-1H-quinoline-3-carboxamide] | < 10 | ++ (between 25% to 100%) |
| CCCc1ccccc1NC(=O)c1c[nH]c2ccccc2c1=O [Compound 16, 4-oxo-N-(2-propylphenyl)-1H-quinoline-3-carboxamide] | < 10 | ++ (between 25% to 100%) |
| O=C(Nc1ccccc1-c1ccccc1)c1c[nH]c2cc(C(F)(F)F)ccc2c1=O [Compound 469, 4-oxo-N-(2-phenylphenyl)-7-(trifluoromethyl)-1H-quinoline-3-carboxamide] | < 10 | ++ (between 25% to 100%) |
| CN(C)c1cc(NC(=O)c2c[nH]c3ccccc3c2=O)ccc1C(C)(C)C [Compound 485, N-(3-Dimethylamino-4-tert-butyl-phenyl)-4-oxo-1H-quinoline-3-carboxamide] |  | ++ (between 25% to 100%) |
| Cc1ccc2c(=O)c(C(=O)Nc3cc4[nH]ccc4cc3C(C)(C)C)c[nH]c2c1 [Compound 704, 7-methyl-4-oxo-N-(5-tert-butyl-1H-indol-6-yl)-1H-quinoline-3-carboxamide] | < 10 | ++ (between 25% to 100%) |
| O=C(Nc1ccc2nc[nH]c2c1)c1c[nH]c2ccccc2c1=O [Compound 414, N-(3H-benzoimidazol-5-yl)-4-oxo-1H-quinoline-3-carboxamide] | 25 to 60 | + (<25%) |
| O=C(Nc1ccccc1-c1ccc(C(F)(F)F)cc1)c1c[nH]c2ccccc2c1=O [Compound 366, 4-oxo-N-[2-[4-(trifluoromethyl)phenyl]phenyl]-1H-quinoline-3-carboxamide] | < 10 | ++ (between 25% to 100%) |
| CC(C)c1ccc(NC(=O)c2c[nH]c3ccc(F)cc3c2=O)c(C(F)(F)F)c1 [Compound 557, 6-fluoro-N-[4-isopropyl-2-(trifluoromethyl)phenyl]-4-oxo-1H-quinoline-3-carboxamide] | < 10 | ++ (between 25% to 100%) |
| O=C(Nc1ccc(C(F)(F)F)c(O)c1)c1c[nH]c2ccccc2c1=O [Compound 506, N-[3-hydroxy-4-(trifluoromethyl)phenyl]-4-oxo-1H-quinoline-3-carboxamide] | < 10 | ++ (between 25% to 100%) |

| Compound | EC50 [µM] | % Activity |
| --- | --- | --- |
| Cc1ccc2[nH]cc(C(=O)Nc3ccc(N4CCC(C)(C)C4)cc3C(F)(F)F)c(=O)c2c1 [Compound 489, N-[4-(3,3-dimethylpyrrolidin-1-yl)-2-(trifluoromethyl)phenyl]-6-methyl-4-oxo-1H-quinoline-3-carboxamide] | < 10 | ++ (between 25% to 100%) |
| CCCCCc1ccc(NC(=O)c2c[nH]c3ccccc3c2=O)cc1 [Compound 99, 4-oxo-N-(4-pentylphenyl)-1H-quinoline-3-carboxamide] | < 10 | ++ (between 25% to 100%) |
| CSc1nc2ccccc2c(O)c1C(=O)Nc1ccc2cc[nH]c2c1 [Compound 374, 4-hydroxy-N-(1H-indol-6-yl)-2-methylsulfanyl-quinoline-3-carboxamide] | 25 to 60 | + (<25%) |
| COc1ccccc1-c1ccccc1NC(=O)c1c[nH]c2ccccc2c1=O [Compound 355, N-[2-(2-methoxyphenyl)phenyl]-4-oxo-1H-quinoline-3-carboxamide] | < 10 | ++ (between 25% to 100%) |
| O=C(Nc1ccc2c(c1)NCCO2)c1c[nH]c2ccccc2c1=O [Compound 105, 1,4-dihydro-N-(3,4-dihydro-2H-benzo[b][1,4]oxazin-6-yl)-4-oxoquinoline-3-carboxamide] | 10 to 25 | ++ (between 25% to 100%) |
| O=C(Nc1ccccc1C(O)c1ccccc1)c1c[nH]c2ccccc2c1=O (stereo not shown) [Compound 228, N-[2-(hydroxy-phenyl-methyl)phenyl]-4-oxo-1H-quinoline-3-carboxamide] | < 10 | ++ (between 25% to 100%) |
| CC(CO)(CO)c1ccc(NC(=O)c2c[nH]c3cccc(O)c3c2=O)cc1 [Compound 493, 5-hydroxy-N-[4-[2-hydroxy-1-(hydroxymethyl)-1-methyl-ethyl]phenyl]-4-oxo-1H-quinoline-3-carboxamide] | < 10 | ++ (between 25% to 100%) |
| CC(C)(C)c1cc2cc[nH]c2cc1NC(=O)c1c[nH]c2ccc(O)cc2c1=O [Compound 679, 6-hydroxy-4-oxo-N-(5-tert-butyl-1H-indol-6-yl)-1H-quinoline-3-carboxamide] | < 10 | ++ (between 25% to 100%) |
| COC(=O)[C@@H]1[C@@H](C)CCN1c1ccc(NC(=O)c2c[nH]c3ccccc3c2=O)c(C(F)(F)F)c1 [Compound 530, (2S,3S)-methyl 3-methyl-1-(4-(4-oxo-1,4-dihydroquinoline-3-carboxamido)-3-(trifluoromethyl)phenyl)pyrrolidine-2-carboxylate] | < 10 | ++ (between 25% to 100%) |
| O=C(Nc1ccc(C(O)(C(F)(F)F)C(F)(F)F)cc1)c1c[nH]c2ccccc2c1=O [Compound 150, 4-oxo-N-[4-[2,2,2-trifluoro-1-hydroxy-1-(trifluoromethyl)ethyl]phenyl]-1H-quinoline-3-carboxamide] | < 10 | ++ (between 25% to 100%) |
| Cc1ccc2c(=O)c(C(=O)Nc3cc(O)c(C4(C)CCCCC4)cc3F)c[nH]c2c1 [Compound 499, N-[2-fluoro-5-hydroxy-4-(1-methylcyclohexyl)-phenyl]-7-methyl-4-oxo-1H-quinoline-3-carboxamide] | < 10 | ++ (between 25% to 100%) |
| O=C(Nc1ccc2cc[nH]c2c1)c1cnc2c(F)cc(F)cc2c1O [Compound 377, 6,8-difluoro-4-hydroxy-N-(1H-indol-6-yl)quinoline-3-carboxamide] | 10 to 25 | ++ (between 25% to 100%) |
| COc1ccc(C(C)C)cc1-c1ccccc1NC(=O)c1c[nH]c2ccccc2c1=O [Compound 59, N-[2-(5-isopropyl-2-methoxy-phenyl)phenyl]-4-oxo-1H-quinoline-3-carboxamide] | < 10 | +++ (>100%) |
| O=C(Nc1cc(O)cc(C(F)(F)F)c1)c1c[nH]c2ccccc2c1=O [Compound 563, N-[3-hydroxy-5-(trifluoromethyl)phenyl]-4-oxo-1H-quinoline-3-carboxamide] | < 10 | ++ (between 25% to 100%) |
| O=C(Nc1cc(C(=O)O)c2cc[nH]c2c1)c1c[nH]c2ccccc2c1=O [Compound 711, 6-[(4-oxo-1H-quinolin-3-yl)carbonylamino]-1H-indole-4-carboxylic acid] | < 10 | ++ (between 25% to 100%) |
| O=C(Nc1ccc2cc[nH]c2c1)c1c[nH]c2ccccc2c1=O [Compound 33, N-(1H-indol-6-yl)-4-oxo-1H-quinoline-3-carboxamide] | < 10 | ++ (between 25% to 100%) |
| COC(=O)[C@]1(C)CCCN1c1ccc(NC(=O)c2c[nH]c3ccccc3c2=O)c(C(F)(F)F)c1 [Compound 631, (S)-methyl 2-methyl-1-(4-(4-oxo-1,4-dihydroquinoline-3-carboxamido)-3-(trifluoromethyl)phenyl)pyrrolidine-2-carboxylate] | < 10 | +++ (>100%) |
| CC(C)(C)c1ccc(NC(=O)c2c[nH]c3ccccc3c2=O)cc1F [Compound 645, N-(3-fluoro-4-tert-butyl-phenyl)-4-oxo-1H-quinoline-3-carboxamide] | < 10 | ++ (between 25% to 100%) |
